Experimental data taken from the CheMixHub ionic liquid set.

Assay: xn = mol fraction of the nth substance listed

NC(=O)CC[C@H](N)C(=O)O + CCCCCCCCCCCC[N+](C)(C)C.[Br-] + O
viscosity [mPa·s], 101 kPa
Conditions | 293.15 K | 298.15 K | 303.15 K | 308.15 K | 313.15 K
x1 = 0.0001801, x2 = 0.0001083 | 1.02 | 0.908 | 0.822 | 0.738 | 0.667
x1 = 0.0001801, x2 = 0.0001624 | 1.024 | 0.911 | 0.824 | 0.74 | 0.67
x1 = 0.0001801, x2 = 0.0002165 | 1.028 | 0.913 | 0.825 | 0.742 | 0.672
x1 = 0.0001801, x2 = 0.0002706 | 1.036 | 0.914 | 0.827 | 0.744 | 0.674
x1 = 0.0001801, x2 = 0.0003247 | 1.045 | 0.917 | 0.828 | 0.745 | 0.676
x1 = 0.0001801, x2 = 0.0003788 | 1.051 | 0.921 | 0.832 | 0.747 | 0.677
x1 = 0.0001801, x2 = 0.0004328 | 1.057 | 0.926 | 0.835 | 0.749 | 0.68
x1 = 0.0001801, x2 = 0.0004869 | 1.062 | 0.932 | 0.837 | 0.754 | 0.683
x1 = 0.0001801, x2 = 0.000541 | 1.067 | 0.937 | 0.841 | 0.757 | 0.687
x1 = 0.0001802, x2 = 5.413e-05 | 1.018 | 0.905 | 0.819 | 0.735 | 0.666
x1 = 0.0008997, x2 = 0.0005438 | 1.057 | 0.91 | 0.821 | 0.751 | 0.678
x1 = 0.0008998, x2 = 0.0003807 | 1.045 | 0.898 | 0.81 | 0.739 | 0.668
x1 = 0.0008998, x2 = 0.0004351 | 1.051 | 0.902 | 0.814 | 0.743 | 0.67
x1 = 0.0008998, x2 = 0.0004894 | 1.053 | 0.906 | 0.818 | 0.747 | 0.674
x1 = 0.0008999, x2 = 0.000272 | 1.041 | 0.893 | 0.805 | 0.734 | 0.664
x1 = 0.0008999, x2 = 0.0003263 | 1.043 | 0.896 | 0.807 | 0.736 | 0.666
x1 = 0.0009, x2 = 0.0001632 | 1.036 | 0.889 | 0.801 | 0.729 | 0.66
x1 = 0.0009, x2 = 0.0002176 | 1.039 | 0.891 | 0.803 | 0.732 | 0.662
x1 = 0.0009001, x2 = 5.44e-05 | 1.033 | 0.884 | 0.797 | 0.725 | 0.655
x1 = 0.0009001, x2 = 0.0001088 | 1.035 | 0.886 | 0.799 | 0.727 | 0.657
x1 = 0.001798, x2 = 0.0001642 | 1.015 | 0.873 | 0.788 | 0.725 | 0.642
x1 = 0.001798, x2 = 0.000219 | 1.02 | 0.875 | 0.79 | 0.726 | 0.643
x1 = 0.001798, x2 = 0.0002737 | 1.025 | 0.878 | 0.792 | 0.728 | 0.645
x1 = 0.001798, x2 = 0.0003284 | 1.031 | 0.88 | 0.793 | 0.73 | 0.647
x1 = 0.001798, x2 = 0.0003831 | 1.034 | 0.885 | 0.797 | 0.732 | 0.648
x1 = 0.001798, x2 = 0.0004378 | 1.037 | 0.888 | 0.803 | 0.733 | 0.65
x1 = 0.001798, x2 = 0.0004925 | 1.039 | 0.892 | 0.807 | 0.736 | 0.653
x1 = 0.001798, x2 = 0.0005472 | 1.042 | 0.896 | 0.813 | 0.738 | 0.655
x1 = 0.001799, x2 = 5.475e-05 | 1.004 | 0.867 | 0.784 | 0.721 | 0.634
x1 = 0.001799, x2 = 0.0001095 | 1.01 | 0.87 | 0.785 | 0.722 | 0.639

CCCN + CCCCCC[n+]1ccn(C)c1.F[B-](F)(F)F
298.15 K, 101 kPa
Conditions | viscosity [mPa·s]
x1 = 0.1525 | 110
x1 = 0.5052 | 29.08
x1 = 0.9012 | 1.672

CC(=O)[O-].CC[n+]1ccn(C)c1 + O=C[C@H](O)[C@@H](O)[C@H](O)[C@H](O)CO
100 kPa
Conditions | viscosity [mPa·s]
282.5 K, x2 = 0.009453 | 407
282.5 K, x2 = 0.02839 | 517
312.5 K, x2 = 0.1429 | 419
332.2 K, x2 = 0.1429 | 123
373.1 K, x2 = 0.095 | 19
